Each block holds one molecule with its values, some of them ahead of it.
Experiments:
RARγ = target: T1, RARγ (Homo sapiens, UniProt P13631); assay: Co-transfection assay (CV-1 cells), RARγ agonist activity; assay type: cell-based
T1 construct: expressed in transfected cells; host or cells: CV-1 (African green monkey kidney fibroblasts)
T1 sequence (P13631 1-454): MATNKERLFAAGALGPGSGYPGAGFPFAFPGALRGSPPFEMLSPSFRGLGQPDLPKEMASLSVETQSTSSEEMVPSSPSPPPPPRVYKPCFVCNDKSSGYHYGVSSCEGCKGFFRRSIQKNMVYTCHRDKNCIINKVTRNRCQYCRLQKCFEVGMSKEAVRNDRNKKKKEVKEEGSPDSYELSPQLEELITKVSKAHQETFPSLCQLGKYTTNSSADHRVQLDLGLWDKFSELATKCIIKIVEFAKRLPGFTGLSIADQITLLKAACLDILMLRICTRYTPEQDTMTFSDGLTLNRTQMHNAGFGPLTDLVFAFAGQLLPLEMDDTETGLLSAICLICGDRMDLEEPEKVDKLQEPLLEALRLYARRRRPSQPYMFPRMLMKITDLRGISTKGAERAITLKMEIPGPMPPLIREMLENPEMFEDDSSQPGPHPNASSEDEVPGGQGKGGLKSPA

AML-193 = assay: Incorporation of 3H-thymidine, AML-193; conditions: 96 h, read-out: TdR IC50 (50% inhibition of maximally observed thymidine incorporation)
RARs = assay: Co-transfection assay, RAR subfamily; assay type: cell-based, human
Method: (§1) Utilizing the "cis-trans" or "co-transfection" assay described by Evans et al., Science, 240:889-95 (May 13, 1988), the disclosure of which is herein incorporated by reference, the retinoid compounds of the present invention were tested and found to have strong, specific activity as either selective RAR agonists, selective RXR agonists, or as pan-agonist activators of both RAR and RXR receptors. This assay is described in further detail in U.S. Pat. Nos. 4,981,784 and 5,071,773, the disclosures of which are incorporated herein by reference.
(§2) The co-transfection assay provides a method for identifying functional agonists which mimic, or antagonists which inhibit, the effect of native hormones, and quantifying their activity for responsive IR proteins. In this regard, the co-transfection assay mimics an in vivo system in the laboratory. Importantly, activity in the co-transfection assay correlates very well with known in vivo activity, such that the co-transfection assay functions as a qualitative and quantitative predictor of a tested compounds in vivo pharmacology. See, e.g., T. Berger et al. 41 J. Steroid Biochem. Molec. Biol. 773 (1992), the disclosure of which is herein incorporated by reference.
In the co-transfection assay, a cloned cDNA for an IR (e.g., human RARα, RARβ, RXRγ) under the control of a constitutive promoter (e.g., the SV 40 promoter) is introduced by transfection (a procedure to induce cells to take up foreign genes) into a background cell substantially devoid of endogenous IRs. This introduced gene directs the recipient cells to make the IR protein of interest. A second gene is also introduced (co-transfected) into the same cells in conjunction with the IR gene. This second gene, comprising the cDNA for a reporter protein, such as firefly luciferase (LUC), is controlled by an appropriate hormone responsive promoter containing a hormone response element (HRE). This reporter plasmid functions as a reporter for the transcription-modulating activity of the target IR. Thus, the reporter acts as a surrogate for the products (mRNA then protein) normally expressed by a gene under control of the target receptor and its native hormone.
The co-transfection assay can detect small molecule agonists or antagonists of target IRs. Exposing the transfected cells to an agonist ligand compound increases reporter activity in the transfected cells. This activity can be conveniently measured, e.g., by increasing luciferase production, which reflects compound-dependent, IR-mediated increases in reporter transcription. […] . Increasing concentrations of a suspected antagonist will decrease the reporter signal (e.g., luciferase production). The co-transfection assay is therefore useful to detect both agonists and antagonists of specific IRs. Furthermore, it determines not only whether a compound interacts with a particular IR, but whether this interaction mimics (agonizes) or blocks (antagonizes) the effects of the native regulatory molecules on target gene expression, as well as the specificity and strength of this interaction. […]

RAR and RXR receptors = assay: Binding to the RAR and RXR receptors; conditions: relative to ATRA (RAR) and 9-cis (RXR)
RXRα = target: T2, RXRα (Homo sapiens, UniProt P19793); assay: Co-transfection assay (CV-1 cells), RXRα agonist activity; assay type: cell-based; conditions: read-out: RXRα Pot (potency, EC50)
T2 construct: expressed in transfected cells; host or cells: CV-1 (African green monkey kidney fibroblasts)
T2 sequence (P19793 1-462): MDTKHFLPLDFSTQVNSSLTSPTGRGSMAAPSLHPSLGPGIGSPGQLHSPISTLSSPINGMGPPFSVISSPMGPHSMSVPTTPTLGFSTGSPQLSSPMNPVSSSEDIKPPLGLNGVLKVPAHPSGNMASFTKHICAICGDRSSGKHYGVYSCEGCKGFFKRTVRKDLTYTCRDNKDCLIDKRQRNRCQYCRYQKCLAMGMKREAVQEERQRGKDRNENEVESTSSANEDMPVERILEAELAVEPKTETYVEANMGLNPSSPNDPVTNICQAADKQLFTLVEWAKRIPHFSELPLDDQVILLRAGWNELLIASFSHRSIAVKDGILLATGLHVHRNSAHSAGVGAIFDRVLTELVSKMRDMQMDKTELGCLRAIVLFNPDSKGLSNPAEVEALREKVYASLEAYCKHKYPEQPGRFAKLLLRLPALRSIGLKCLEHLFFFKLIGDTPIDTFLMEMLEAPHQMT

RARα = target: T3, RARα (Homo sapiens, UniProt P10276); assay: Co-transfection assay (CV-1 cells), RARα agonist activity; assay type: cell-based; conditions: read-out: RARα Pot (potency, EC50)
T3 construct: expressed in transfected cells; host or cells: CV-1 (African green monkey kidney fibroblasts)
T3 sequence (P10276 1-462): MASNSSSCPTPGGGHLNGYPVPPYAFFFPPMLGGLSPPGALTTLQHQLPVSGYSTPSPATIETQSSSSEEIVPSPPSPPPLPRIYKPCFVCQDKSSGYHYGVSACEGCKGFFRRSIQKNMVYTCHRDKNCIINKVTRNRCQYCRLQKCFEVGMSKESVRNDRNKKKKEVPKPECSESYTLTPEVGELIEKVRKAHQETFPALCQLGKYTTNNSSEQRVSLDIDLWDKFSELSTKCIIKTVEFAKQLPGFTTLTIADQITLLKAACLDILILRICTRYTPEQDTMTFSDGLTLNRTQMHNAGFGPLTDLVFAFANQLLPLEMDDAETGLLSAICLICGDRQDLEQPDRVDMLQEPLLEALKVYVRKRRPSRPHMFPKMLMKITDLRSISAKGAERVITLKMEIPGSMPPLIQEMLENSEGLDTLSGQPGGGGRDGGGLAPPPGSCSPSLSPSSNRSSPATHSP

RXRβ = target: T4, RXRβ (Mus musculus, UniProt P28704); assay: Co-transfection assay (CV-1 cells), RXRβ agonist activity; assay type: cell-based; conditions: read-out: RXRβ Pot (potency, EC50)
T4 construct: expressed in transfected cells; host or cells: CV-1 (African green monkey kidney fibroblasts)
T4 sequence (P28704 1-520): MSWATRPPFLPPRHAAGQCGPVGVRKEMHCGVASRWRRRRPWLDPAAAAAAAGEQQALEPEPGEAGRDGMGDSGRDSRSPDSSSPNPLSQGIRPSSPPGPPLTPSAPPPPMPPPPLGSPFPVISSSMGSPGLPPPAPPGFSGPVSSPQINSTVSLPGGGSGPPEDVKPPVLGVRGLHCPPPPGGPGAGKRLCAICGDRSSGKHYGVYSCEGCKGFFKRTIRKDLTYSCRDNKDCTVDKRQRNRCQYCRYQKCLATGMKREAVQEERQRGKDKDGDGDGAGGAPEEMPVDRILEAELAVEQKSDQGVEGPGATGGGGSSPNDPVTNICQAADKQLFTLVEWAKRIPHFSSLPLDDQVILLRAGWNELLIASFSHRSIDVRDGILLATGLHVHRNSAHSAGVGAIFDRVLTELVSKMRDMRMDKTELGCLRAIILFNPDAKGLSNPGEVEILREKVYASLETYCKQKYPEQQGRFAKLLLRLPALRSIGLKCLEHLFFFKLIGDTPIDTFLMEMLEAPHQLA

RXRγ = target: T5, RXRγ (Mus musculus, UniProt P28705); assay: Co-transfection assay (CV-1 cells), RXRγ agonist activity; assay type: cell-based; conditions: read-out: RXRγ Pot (potency, EC50)
T5 construct: expressed in transfected cells; host or cells: CV-1 (African green monkey kidney fibroblasts)
T5 sequence (P28705 1-463): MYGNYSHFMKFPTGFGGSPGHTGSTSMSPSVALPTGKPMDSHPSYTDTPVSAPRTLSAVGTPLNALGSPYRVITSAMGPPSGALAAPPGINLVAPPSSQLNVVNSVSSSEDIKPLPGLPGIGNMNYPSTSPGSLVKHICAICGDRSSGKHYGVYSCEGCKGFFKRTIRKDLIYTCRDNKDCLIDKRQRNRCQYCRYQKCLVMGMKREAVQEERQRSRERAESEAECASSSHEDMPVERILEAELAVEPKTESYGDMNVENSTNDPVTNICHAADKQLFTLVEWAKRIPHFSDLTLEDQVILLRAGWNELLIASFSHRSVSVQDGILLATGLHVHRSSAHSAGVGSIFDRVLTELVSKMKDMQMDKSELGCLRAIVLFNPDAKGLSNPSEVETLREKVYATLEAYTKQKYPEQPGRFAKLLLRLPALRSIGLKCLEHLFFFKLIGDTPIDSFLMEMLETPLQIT

RARβ = target: T6, RARβ (Homo sapiens, UniProt P10826); assay: Co-transfection assay (CV-1 cells), RARβ agonist activity; assay type: cell-based; conditions: read-out: RARβ Pot (potency, EC50)
T6 construct: expressed in transfected cells; host or cells: CV-1 (African green monkey kidney fibroblasts)
T6 sequence (P10826 1-448 isoform P10826-2): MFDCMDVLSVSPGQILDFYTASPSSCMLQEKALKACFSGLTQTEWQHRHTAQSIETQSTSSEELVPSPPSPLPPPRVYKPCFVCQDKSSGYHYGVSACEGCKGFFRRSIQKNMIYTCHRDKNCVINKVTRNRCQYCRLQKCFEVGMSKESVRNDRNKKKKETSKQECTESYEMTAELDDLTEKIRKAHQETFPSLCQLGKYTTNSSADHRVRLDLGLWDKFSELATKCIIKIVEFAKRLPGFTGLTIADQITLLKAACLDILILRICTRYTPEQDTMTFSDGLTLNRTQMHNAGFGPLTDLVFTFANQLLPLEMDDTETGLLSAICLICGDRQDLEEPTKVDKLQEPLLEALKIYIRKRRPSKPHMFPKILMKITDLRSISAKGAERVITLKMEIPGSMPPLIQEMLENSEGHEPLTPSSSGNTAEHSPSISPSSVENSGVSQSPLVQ

RXR = assay: Co-transfection assay, RXR subfamily; assay type: cell-based
Method: as §1
as §2, with “Biol. 773 (1992), the disclosure of which is herein incorporated by reference.” left out
The co-transfection assay can detect small molecule agonists or antagonists of target IRs. […] This activity can be conveniently measured, e.g., by increasing luciferase production, which reflects compound-dependent, IR-mediated increases in reporter transcription. […]

- activity on RARγ (in words) (RARγ): sub-nanomolar activity
- IC50 (AML-193): 0.1 nM
- binding compared to ATRA and 9-cis (in words) (RAR and RXR receptors): equal or superior binding
Compound: CC(/C=C/C=C(\C)c1cc(C(C)(C)C)cc(C(C)(C)C)c1)=C\C(=O)O [Compound 9, (2E, 4E, 6E)-7-(3,5-Di-t-butylphenyl)-3-methylocta-2,4,6-trienoic acid]
- RAR activity (in words) (RARs): extremely potent RAR active compounds

- EC50 (RXRα): 127 nM
- EC50 (RARγ; co-transfection assay, CV-1 cells, read-out: RARγ Pot (potency, EC50)): 16 nM
- EC50 (RARα): 59 nM
- EC50 (RXRβ): 48 nM
- EC50 (RXRγ): 56 nM
- EC50 (RARβ): 23 nM
Compound: CCCC(O)c1cc(C(C)(C)C)cc(C(C)(C)C)c1 (centres unmarked) [Compound 19, 1-(3,5-Di-t-butylphenyl)butan-1-ol]

Compound: CCC/C(=C/C=C/C(C)=C/C(=O)O)c1cc(C(C)(C)C)cc(C(C)(C)C)c1 [Compound 28, (2E. 4E 6Z)-7-(3,5-Di-t-butylphenyl)-3-methyldeca-2,4,6-trienoic acid]
- RXR activity (in words) (RXR): very potent and selective RXR active compound
